Measurements as given in patent publication US20100063041A1, “NOVEL PHENYLPROPIONIC ACID DERIVATIVES AS PEROXISOME PROLIFERATOR-ACTIVATED GAMMA RECEPTOR MODULATORS, METHOD OF THE SAME, AND PHARMACEUTICAL COMPOSITION COMPRISING THE SAME” (priority 2007, published 2010).
Substitutions are numbered along the chain they refer to.

What was measured:
Human PPAR-γ = target: T1, Human PPAR-γ (Homo sapiens, UniProt P37231); assay: transactivation assay (GAL4 chimeric receptor, luciferase) in CV-1 cells; format: cell-based; conditions: for Emax: CV-1, Relative Response % to maximum effects of the positive control drug, read-out: Max % Human PPAR-γ; for EC50: CV-1 cells, GAL4 chimeric receptor, 24 hours
T1 construct: expressed in transfected cells; host or cells: CV-1 (CCL-70, ATCC)
T1 sequence (P37231 238-503 limits assumed): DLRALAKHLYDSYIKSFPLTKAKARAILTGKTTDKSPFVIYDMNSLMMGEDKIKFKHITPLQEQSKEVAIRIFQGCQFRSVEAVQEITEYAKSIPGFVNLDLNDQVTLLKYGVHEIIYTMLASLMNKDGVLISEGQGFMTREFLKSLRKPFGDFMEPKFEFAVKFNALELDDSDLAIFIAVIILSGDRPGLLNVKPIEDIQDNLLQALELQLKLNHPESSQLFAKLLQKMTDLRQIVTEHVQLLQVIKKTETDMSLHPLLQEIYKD
Protocol: (§1) Following induction of transient intracellular expression of PPAR-α and -γ, an ability of the inventive compounds to induce transactivation of PPARs via activation of each PPAR was evaluated as an efficacy of the compound (transactivation assay).
(§2) For this assay, the African green monkey kidney cell line CV-1 (CCL-70, ATCC) was used as a test cell line, and PPAR-α and -γ were murine- and human-derived PPARs. Samples used were compounds prepared in Examples 19, 21, 23, 25, 26, 27, 31, 33, 34, 36, 38, 40, 42, 43 and 50. As a positive control drug, 3-4-[2-(2-phenyl-4-methyl-1,3-oxazole)ethyloxy]phenyl-(2S)-[(1-methyl-3-oxo-3-phenyl)propenyl]aminopropionic acid was used that is a PPAR-α or -γ agonist which was once under development and whose clinical trials and studies were suspended at phase III. A chimeric receptor was adopted to circumvent the probable interference due to endogenous receptor activation (Jian-Shen Q. et al., Mol Cell Biol (1995) 15(3):1817-1825). The chimeric receptor was constructed as a fusion of a PPAR-α or -γ ligand-binding domain with a DNA-binding domain of GAL4 which is a yeast transactivator.
(§3) The CV-1 cells were transiently transfected with each of chimeric receptor-expressing DNA constructs and each of DNA constructs comprising 5 copies of the GAL4 DNA-binding domain and capable of inducing expression of firefly luciferase or Renilla luciferase using a Lipofectamine Plus reagent (Invitrogen, USA). After transfection for 3 hours, the culture media were replaced with DMEM containing the above samples and 10% fetal bovine serum. 24 hours later, the firefly luciferase activity and Renilla luciferase activity were continuously assayed while adding an equal amount of a dual luciferase assay reagent (Promega, USA) to the cell-containing media. The transfection efficiency was normalized against Renilla luciferase activity (Motomura W. et al., Int J Cancer (2004) 108(1):41-6). The PPAR-α and -γ activity was determined by calculating Relative Response % to maximum effects of the positive control drug, and conducting multiple dose evaluation of the inventive compounds to calculate EC50, which is the concentration of a drug which produces 50% activation relative to maximum effects of the inventive compounds, by nonlinear regression analysis.

Mouse PPAR-α = target: T2, Mouse PPAR-α (Mus musculus, UniProt P23204); assay: as above; format: cell-based; conditions: for Emax: CV-1, Relative Response % to maximum effects of the positive control drug, read-out: Max % Mouse PPAR-α; for EC50: CV-1 cells, GAL4 chimeric receptor, 24 hours
T2 construct: expressed in transfected cells; host or cells: CV-1 (CCL-70, ATCC)
T2 sequence (P23204 239-466 limits assumed): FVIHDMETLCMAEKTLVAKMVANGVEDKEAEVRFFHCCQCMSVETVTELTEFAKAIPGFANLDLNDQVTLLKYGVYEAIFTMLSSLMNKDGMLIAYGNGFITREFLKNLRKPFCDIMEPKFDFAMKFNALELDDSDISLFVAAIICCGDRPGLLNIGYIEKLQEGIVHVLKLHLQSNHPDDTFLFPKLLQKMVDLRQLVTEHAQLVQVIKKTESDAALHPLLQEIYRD
Protocol: as §1, §2, §3

Mouse PPAR-γ = target: T3, Mouse PPAR-γ (Mus musculus, UniProt P37238); assay: as above; format: cell-based; conditions: for Emax: CV-1, Relative Response % to maximum effects of the positive control drug, read-out: Max % Mouse PPAR-γ; for EC50: CV-1 cells, GAL4 chimeric receptor, 24 hours
T3 construct: expressed in transfected cells; host or cells: CV-1 (CCL-70, ATCC)
T3 sequence (P37238 238-503 limits assumed): T1 sequence (P37231 238-503 limits assumed) with S93N, V98I, S146N, L226V, Q245H
Protocol: as §1, §2, §3

Human PPAR-α = target: T4, Human PPAR-α (Homo sapiens, UniProt Q07869); assay: as above; format: cell-based; conditions: for Emax: CV-1, Relative Response % to maximum effects of the positive control drug, read-out: Max % Human PPAR-α; for EC50: CV-1 cells, GAL4 chimeric receptor, 24 hours
T4 construct: expressed in transfected cells; host or cells: CV-1 (CCL-70, ATCC)
T4 sequence (Q07869 239-466 limits assumed): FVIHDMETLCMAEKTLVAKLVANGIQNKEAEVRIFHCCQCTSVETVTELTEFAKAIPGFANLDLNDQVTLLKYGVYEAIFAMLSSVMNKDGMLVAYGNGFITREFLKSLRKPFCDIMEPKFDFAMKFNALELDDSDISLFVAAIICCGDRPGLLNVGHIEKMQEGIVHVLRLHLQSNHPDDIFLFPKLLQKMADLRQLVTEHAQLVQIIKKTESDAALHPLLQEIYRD
Protocol: as §1, §2, §3

[1] = system: diabetic male mice (db/db mice); assay: blood glucose-lowering effects in mice with hyperglycemic diabetes; format: in vivo; conditions: for % Inhibition vs. Control / Blood glucose D5: oral once a day for 5 days
Protocol: Effects of PPAR compounds on a blood glucose level were evaluated in 7-week-old diabetic male mice (db/db mice). Blood was collected from caudal veins of the diabetic animals to which the drug was administered once a day for 5 consecutive days, and the blood glucose level was then measured with a blood glucose test meter (ACCU CHEK Active®).

Trap220 = conditions: cited from earlier work
[2] = 12-week clinical, P>0.05, cited from earlier work

SMILES	Emax (Human PPAR-γ) [%]	EC50 (Human PPAR-γ) [nM]	Emax (Mouse PPAR-α) [%]	Emax (Mouse PPAR-γ) [%]	EC50 (Mouse PPAR-γ) [nM]	Emax (Human PPAR-α) [%]	% Inhibition vs. Control ([1]; 0.3 mg/kg) [%]	Blood glucose D5 ([1]; 0.3 mg/kg) [mg/dL]	% Inhibition vs. Control ([1]; 1 mg/kg) [%]	Blood glucose D5 ([1]; 1 mg/kg) [mg/dL]	% Inhibition vs. Control ([1]; 3 mg/kg) [%]	Blood glucose D5 ([1]; 3 mg/kg) [mg/dL]	Blood glucose D0 ([1]; oral, 0.3 mg/kg) [mg/dL]	Blood glucose D0 ([1]; oral, 1 mg/kg) [mg/dL]	Blood glucose D0 ([1]; oral, 3 mg/kg) [mg/dL]	EC50 (Human PPAR-α) [nM]	EC50 (Mouse PPAR-α) [nM]	% Inhibition vs. Control ([1]; 10 mg/kg) [%]	Blood glucose D5 ([1]; 10 mg/kg) [mg/dL]	Blood glucose D0 ([1]; oral, 10 mg/kg) [mg/dL]	other results
CCO[C@@H](Cc1ccc(OCc2sc(-c3ccc(-c4csc(C)n4)cc3)cc2C)cc1)C(=O)O [Example 21, (S)-2-ethoxy-3-(4-((3-methyl-5-(4-(2-methylthiazol-4-yl)phenyl)thiophen-2-yl)methoxy)phenyl)propionic acid]	15	472	4	18	883	0	28	354 ± 67	29	354 ± 58	36	319 ± 63	483 ± 38	482 ± 45	483 ± 45	–	–	–	–	–	% Inhibition vs. Control ([1]; 0.1 mg/kg): 16%; Blood glucose D5 ([1]; 0.1 mg/kg): 416 ± 45 mg/dL; Blood glucose D0 ([1]; oral, 0.1 mg/kg): 485 ± 44 mg/dL
CCO[C@@H](Cc1ccc(OCc2sc(-c3ccc(-c4nnn(COC)n4)cc3)cc2C)cc1)C(=O)O [Example 32, (S)-2-ethoxy-3-(4-((5-(4-(2-(methoxymethyl)-2H-tetrazol-5-yl)phenyl)-3-methylthiophen-2-yl)methoxy)phenyl)propionic acid]	32	111	9	31	322	18	21	416 ± 53	–	–	61	205 ± 42	500 ± 32	–	498 ± 30	1010	–	–	–	–	–
CCO[C@@H](Cc1ccc(OCc2sc(-c3ccc(-c4cc(COC)on4)cc3)cc2C)cc1)C(=O)O [Example 36, (S)-2-ethoxy-3-(4-((5-(4-(5-(methoxymethyl)isoxazol-3-yl)phenyl)-3-methylthiophen-2-yl)methoxy)phenyl)propionic acid]	37	41	21	48	354	25	–	–	33	381 ± 73	–	–	–	577 ± 15	–	2300	4300	62	278 ± 56	577 ± 16	–
CCO[C@@H](Cc1ccc(OCc2sc(-c3ccc(-c4cc(C)no4)cc3)cc2C)cc1)C(=O)O [Example 41, (S)-2-ethoxy-3-(4-((3-methyl-5-(4-(3-methylisoxazol-5-yl)phenyl)thiophen-2-yl)methoxy)phenyl)propionic acid]	30	62	19	34	142	23	20	378 ± 44	36	304 ± 13	46	257 ± 40	422 ± 36	422 ± 30	423 ± 35	3150	6160	–	–	–	% Inhibition vs. Control ([1]; 0.1 mg/kg): 4%; Blood glucose D5 ([1]; 0.1 mg/kg): 455 ± 67 mg/dL; Blood glucose D0 ([1]; oral, 0.1 mg/kg): 422 ± 34 mg/dL
CCO[C@@H](Cc1ccc(OCc2sc(-c3ccc(-c4cc(C(C)(C)C)on4)cc3)cc2C)cc1)C(=O)O [Example 48, (S)-3-(4-((5-(4-(5-tert-butylisoxazol-3-yl)phenyl)-3-methylthiophen-2-yl)methoxy)phenyl)-2-ethoxypropionic acid]	27	7	25	24	31	22	–	–	24	375 ± 25	30	347 ± 70	–	452 ± 22	453 ± 20	2830	12100	43	280 ± 40	453 ± 43	–
O=S(=O)(Nc1cc(Cl)c(Oc2cnc3ccccc3c2)c(Cl)c1)c1ccc(Cl)cc1Cl [INT-131, reference compound]	–	–	–	–	–	–	–	–	8	350 ± 31	25	286 ± 34	–	381 ± 30	382 ± 31	–	–	38	237 ± 19	382 ± 28	binding capacity for Trap220 (Trap220): attenuated binding capacity; ED30 ([1]; oral, blood glucose): 4 mg/kg
CC(=O)NCCOC(=O)[C@H](Oc1cccc(C(F)(F)F)c1)c1ccc(Cl)cc1 [metaglidasen]	–	–	–	–	–	–	–	–	–	–	–	–	–	–	–	–	–	–	–	–	edema incidence rate ([2]; 20% in control group): 7.2%; body weight ([2]; +1.3 kg in control group): +0.6 kg
